According to ChEMBL document CHEMBL3808394, “Synthesis and decreasing Aβ content evaluation of arctigenin-4-yl carbamate derivatives” (Bioorg Med Chem Lett, 2016):
Activity calls are given as the source filed them. No cut-off for these calls is given here.

What was measured:
Format in all cases: cell-based
[1] = target: Amyloid-beta precursor protein (Homo sapiens) (UniProt P05067); assay: Reduction in amyloid beta 40 content (unknown origin) expressed in HEK293 cells expressing APP K595N/M596L Swedish mutant at 20 uM after 24 hrs by ELISA
[2] = target: Amyloid-beta precursor protein (Homo sapiens) (UniProt P05067); assay: Reduction in amyloid beta 40 content (unknown origin) expressed in HEK293 cells expressing APP K595N/M596L Swedish mutant at 10 uM after 24 hrs by ELISA
[3] = target: Amyloid-beta precursor protein (Homo sapiens) (UniProt P05067); assay: Reduction in amyloid beta 40 content (unknown origin) expressed in HEK293 cells expressing APP K595N/M596L Swedish mutant at 0.1 uM after 24 hrs by ELISA
[4] = target: Amyloid-beta precursor protein (Homo sapiens) (UniProt P05067); assay: Reduction in amyloid beta 40 content (unknown origin) expressed in HEK293 cells expressing APP K595N/M596L Swedish mutant at 1 uM after 24 hrs by ELISA

Sequence of Amyloid-beta precursor protein (Homo sapiens) (P05067 whole entry): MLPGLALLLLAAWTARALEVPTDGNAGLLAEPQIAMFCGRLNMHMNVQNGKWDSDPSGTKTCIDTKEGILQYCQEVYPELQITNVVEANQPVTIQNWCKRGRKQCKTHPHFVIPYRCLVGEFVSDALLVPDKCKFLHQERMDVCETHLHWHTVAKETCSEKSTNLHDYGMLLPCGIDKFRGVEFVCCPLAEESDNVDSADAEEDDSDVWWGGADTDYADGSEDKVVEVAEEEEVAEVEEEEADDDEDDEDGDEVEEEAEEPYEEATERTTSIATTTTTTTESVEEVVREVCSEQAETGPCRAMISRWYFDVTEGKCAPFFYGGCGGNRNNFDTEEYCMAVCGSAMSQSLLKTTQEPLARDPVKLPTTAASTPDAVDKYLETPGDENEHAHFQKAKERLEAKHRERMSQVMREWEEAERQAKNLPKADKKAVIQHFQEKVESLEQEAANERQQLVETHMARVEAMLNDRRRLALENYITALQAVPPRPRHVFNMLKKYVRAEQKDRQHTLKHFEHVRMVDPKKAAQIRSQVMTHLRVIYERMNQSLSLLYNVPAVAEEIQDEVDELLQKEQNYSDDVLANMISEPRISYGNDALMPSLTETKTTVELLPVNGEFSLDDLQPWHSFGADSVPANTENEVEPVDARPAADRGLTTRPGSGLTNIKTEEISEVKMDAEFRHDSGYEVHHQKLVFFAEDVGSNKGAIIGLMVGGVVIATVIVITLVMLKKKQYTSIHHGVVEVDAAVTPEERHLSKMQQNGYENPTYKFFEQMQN

Row | Structure (SMILES) | inhibition [1] | other results
1 | COc1cccc(NC(=O)Oc2ccc(C[C@H]3C(=O)OC[C@@H]3Cc3ccc(OC)c(OC)c3)cc2OC)c1 | 52.8% | 
2 | COc1ccc(C[C@H]2COC(=O)[C@@H]2Cc2ccc(OC(=O)NC3CCCCC3)c(OC)c2)cc1OC | 35.4% | 
3 | COc1ccc(C[C@H]2COC(=O)[C@@H]2Cc2ccc(OC(=O)Nc3cccc([N+](=O)[O-])c3)c(OC)c2)cc1OC | 63% | 
4 | COc1ccc(C[C@H]2COC(=O)[C@@H]2Cc2ccc(OC(=O)Nc3ccccc3)c(OC)c2)cc1OC | 43.5% | 
5 | COc1ccc(C[C@H]2COC(=O)[C@@H]2Cc2ccc(OC(=O)N(C)C)c(OC)c2)cc1OC | 28.5% | 
6 | COc1ccc(C[C@H]2COC(=O)[C@@H]2Cc2ccc(OC(=O)Nc3ccc(C)c(Cl)c3)c(OC)c2)cc1OC | 53.7% | 
7 | COc1ccc(C[C@H]2COC(=O)[C@@H]2Cc2ccc(OC(=O)NCc3ccccc3)c(OC)c2)cc1OC | 41.3% | 
8 | COc1ccc(C[C@H]2COC(=O)[C@@H]2Cc2ccc(OC(=O)NCCc3ccccc3)c(OC)c2)cc1OC | 49% | 
9 | CCCNC(=O)Oc1ccc(C[C@H]2C(=O)OC[C@@H]2Cc2ccc(OC)c(OC)c2)cc1OC | 20.3% | 
10 | COc1ccc(C[C@H]2COC(=O)[C@@H]2Cc2ccc(OC(=O)N[C@@H](C)c3ccccc3)c(OC)c2)cc1OC | 70.8% | 
11 | COc1ccc(C[C@H]2COC(=O)[C@@H]2Cc2ccc(OC(=O)Nc3cccc(Cl)c3C)c(OC)c2)cc1OC | 62.8% | 
12 | COc1ccc(C[C@H]2COC(=O)[C@@H]2Cc2ccc(OC(=O)N(C)c3ccccc3)c(OC)c2)cc1OC | 30% | 
13 | COc1ccc(NC(=O)Oc2ccc(C[C@H]3C(=O)OC[C@@H]3Cc3ccc(OC)c(OC)c3)cc2OC)cc1 | 52.9% | 
14 | COc1ccc(C[C@H]2COC(=O)[C@@H]2Cc2ccc(OC(=O)N[C@H](C)c3ccccc3)c(OC)c2)cc1OC | 45% | 
15 | COc1ccc(C[C@H]2COC(=O)[C@@H]2Cc2ccc(OC(=O)Nc3ccc(F)c(Cl)c3)c(OC)c2)cc1OC | 60.5% | 
16 | COc1ccc(C[C@H]2COC(=O)[C@@H]2Cc2ccc(OC(=O)Nc3cccc(C)c3)c(OC)c2)cc1OC | 55% | 

Row | Structure (SMILES) | inhibition [1] | other results
17 | COc1ccc(C[C@H]2COC(=O)[C@@H]2Cc2ccc(OC(=O)Nc3cccc(C#N)c3)c(OC)c2)cc1OC | 56% | 
18 | COc1ccc(C[C@H]2COC(=O)[C@@H]2Cc2ccc(OC(=O)N(C)c3cccc(Cl)c3)c(OC)c2)cc1OC | 41% | 
19 | COc1ccc(C[C@H]2COC(=O)[C@@H]2Cc2ccc(OC(=O)Nc3ccc(Cl)cc3)c(OC)c2)cc1OC | 66.9% | inhibition [2]: Active; inhibition [3]: inactive; inhibition [4]: Active
20 | COc1ccccc1NC(=O)Oc1ccc(C[C@H]2C(=O)OC[C@@H]2Cc2ccc(OC)c(OC)c2)cc1OC | 61.7% | 
21 | COc1ccc(C[C@H]2COC(=O)[C@@H]2Cc2ccc(OC(=O)Nc3cccc(Cl)c3)c(OC)c2)cc1OC | 78.7% | inhibition [2]: Active; inhibition [3]: inactive; inhibition [4]: Active
22 | COc1ccc(C[C@H]2COC(=O)[C@@H]2Cc2ccc(OC(=O)NC(C)C)c(OC)c2)cc1OC | 21.4% | 
23 | COc1ccc(C[C@H]2COC(=O)[C@@H]2Cc2ccc(OC(=O)Nc3cccc(F)c3)c(OC)c2)cc1OC | 61% | 
24 | COc1ccc(C[C@H]2COC(=O)[C@@H]2Cc2ccc(OC(=O)Nc3ccccc3Cl)c(OC)c2)cc1OC | 58.3% | 
25 | COc1ccc(Cl)cc1NC(=O)Oc1ccc(C[C@H]2C(=O)OC[C@@H]2Cc2ccc(OC)c(OC)c2)cc1OC | 42.4% | 
26 | CCN(CC)C(=O)Oc1ccc(C[C@H]2C(=O)OC[C@@H]2Cc2ccc(OC)c(OC)c2)cc1OC | 11.9% | 
27 | COc1ccc(C[C@H]2COC(=O)[C@@H]2Cc2ccc(N3CCCCC3)c(OC)c2)cc1OC | 26.2% | 
28 | CCNC(=O)Oc1ccc(C[C@H]2C(=O)OC[C@@H]2Cc2ccc(OC)c(OC)c2)cc1OC | 36.3% | 
29 | COc1ccc(C[C@H]2COC(=O)[C@@H]2Cc2ccc(OC(=O)Nc3cc(Cl)cc(Cl)c3)c(OC)c2)cc1OC | 56% | 
30 | CNC(=O)Oc1ccc(C[C@H]2C(=O)OC[C@@H]2Cc2ccc(OC)c(OC)c2)cc1OC | 29.8% | 
31 | COc1cc(C[C@H]2C(=O)OC[C@@H]2Cc2ccc(OC)c(OC)c2)ccc1O | 44.6% | inhibition [2]: Active; inhibition [3]: inactive; inhibition [4]: inactive
